Here are results for 2 molecules from US20130137701A1, “COMBINATION” (priority 2010, published 2013).

One assay relates to BT-474. The experiment in a line: Cell growth inhibition assay (Cell Titer Glo). The assay is classed as cell-based, Human. Particulars: BT-474, Breast, HER2+, PIK3CA K111N, 3 days, read-out: Single Agent (IC50). On the procedure: (§1) All cells were cultured without lapatinib for a minimum of 72 hours prior to cell plating. Cells were assayed in a 96-well tissue culture plate (NUNC 136102) of RPMI medium containing 10
(§2) % FBS for all cells at 2,000 cells per well except KPL4, which were plated in DMEM containing 5% FBS at 500 cells per well. […] Cells were incubated in the presence of compounds for 3 days. ATP levels were determined by adding Cell Titer Glo® (Promega) according to the manufacturer's protocol. Briefly, Cell Titer Glo® was added each plate, incubated for 20 minutes then luminescent signal was read on the SpectraMax L plate reader with a 0.5 sec integration time.
(§3) Inhibition of cell growth was estimated after treatment with compound or combination of compounds for three days and comparing the signal to cells treated with vehicle (DMSO). Cell growth was calculated relative to vehicle (DMSO) treated control wells. Concentration of compound that inhibits 50% of control cell growth (IC50) was interpolated using nonlinear regression with the equation, y=(A+(B−A)/(1+(C/x)̂D)))), where A is the minimum response (ymin), B is the maximum response (ymax), C is the inflection point of the curve (EC50) and D is the Hill coefficient. […]
On the technique in general: ATP-based viability assays read luminescence as a measure of living cells.

The test system of the next assay is CHL-1. Nature of the assay: Cell growth inhibition assay (Cell Titer Glo). The class given is cell-based, Human. The note with it: CHL-1, Melanoma, HER−, PIK3CA WT, 3 days, read-out: Single Agent (IC50). The method, then: as §1, §2, §3
The test system of the next assay is HCC202. The experiment in a line: Cell growth inhibition assay (Cell Titer Glo). The class given is cell-based, Human. Particulars: HCC202, Breast, HER2+, PIK3CA E545K, 3 days; for IC50: read-out: Single Agent (IC50). On the procedure:
as §1, §2, §3

The test system of a further assay is KPL4. Nature of the assay: Cell growth inhibition assay (Cell Titer Glo). The class given is cell-based, Human. The note with it: KPL4, Breast, HER2+, PIK3CA H1047R, 3 days, read-out: Single Agent (IC50). On the procedure:
as §1, §2, §3

Another assay relates to MDA-MB-361. The experiment in a line: Cell growth inhibition assay (Cell Titer Glo). The class given is cell-based, Human. Particulars: MDA-MB-361 (resistant line), Breast, HER2+, PIK3CA E545K, 3 days; for IC50: Homo sapiens, 72 h, read-out: Single Agent (IC50). On the procedure:
as §1, §2, §3

In the next assay the test system is MDA-MB-453. The experiment in a line: Cell growth inhibition assay (Cell Titer Glo). The note with it: MDA-MB-453, Breast, HER2+, PIK3CA H1047R, 3 days; for IC50: Homo sapiens, 72 h, read-out: Single Agent (IC50). The class given is cell-based, Human. The method, then: as §1, §2, §3
For a further assay, the system named is UACC893. Nature of the assay: Cell growth inhibition assay (Cell Titer Glo). The class given is cell-based, Human. The note with it: UACC893, Breast, HER2+, PIK3CA H1047R, 3 days, read-out: Single Agent (IC50). On the procedure:
as §1, §2, §3

A further assay concerns ZR-75-1. The experiment in a line: Cell growth inhibition assay (Cell Titer Glo). Particulars: ZR-75-1, Breast, HER−, PIK3CA WT, 3 days, read-out: Single Agent (IC50). The assay is classed as cell-based, Human. The method, then:
as §1, §2, §3

In another assay the test system is SK-BR-3-W13. The experiment in a line: Cell growth inhibition assay (Cell Titer Glo). The class given is cell-based. Particulars: Homo sapiens, 72 h; SK-BR-3-W13 (resistant line), Breast, HER2+, PIK3CA WT; 3 days; read-out: Single Agent (IC50). On the procedure: (§4) JIMT-1 is a line derived from a patient clinically resistant to trastuzumab (Herceptin®). SK-BR-3-W13 is a single cell clone isolated by a cloning cylinder after a single treatment of SK-BR-3 cells with 0.5 μM lapatinib. BT-474-J4 is a single cell clone derived from a culture of BT-474 cells that were selected to grow in lapatinib to a concentration of 3 μM.
as §1, §2, §3

For the next assay, the system named is JIMT-1. The experiment in a line: Cell growth inhibition assay (Cell Titer Glo). The assay is classed as cell-based, Human. Particulars: JIMT-1 (resistant line), Breast, HER2+, PIK3CA WT, 3 days, read-out: Single Agent (IC50). The method, then:
as §4, §1, §2, §3

Assay [1] relates to caspase 3/7 activity in BT474 cells. Nature of the assay: Cell apoptosis assay, caspase-3/7 activation (Caspase Glo 3/7). The assay is classed as cell-based, Human. The note with it: 24 h post treatment. The method, then: as §4
(§5) For investigation of the induction of apoptosis, cells were plated at 5,000 cells per well in a 96-well tissue culture plate and allowed to attach for approximately 24 hours. Cells were then treated with compounds as described above. 24 hours after compound treatment, the levels of active caspase 3 and caspase 7 were determined with the Caspase Glo™ 3/7 (Promega, cat G8093) according to the instructions provided by the manufacturer. 48 hours after treatment with compound, levels of apoptosis were estimated using the Roche Cell Death ELISA (Cat. No. 11 774 425 001) following the instructions provided by the manufacturer.

In assay [2] the test system is caspase 3/7 activity in HCC1419 cells. The assay is described as above. The assay is classed as cell-based, Human. The note with it: 24 h post treatment. The method, then: as §4, §5
The test system of assay [3] is caspase 3/7 activity in UACC893 cells. The description is as above. The class given is cell-based, Human. The note with it: 24 h post treatment. On the procedure:
as §4, §5

The next assay has as its system HCC1937. Nature of the assay: Cell growth inhibition assay (Cell Titer Glo). The class given is cell-based, Human. The note with it: HCC1937, Breast, HER−, PIK3CA WT; 3 days; read-out: Single Agent (IC50). On the procedure: as §1, §2, §3
The next assay has as its system MDA-MB-175-VII. The experiment in a line: Cell growth inhibition assay (Cell Titer Glo). Particulars: Breast, HER−, PIK3CA WT, 3 days, read-out: Single Agent (IC50). The assay is classed as cell-based, Human. On the procedure: as §1, §2, §3
In a further assay the test system is SK-BR-3. The experiment in a line: Cell growth inhibition assay (Cell Titer Glo). The assay is classed as cell-based, Human. Particulars: SK-BR-3, Breast, HER2+, PIK3CA WT, 3 days, read-out: Single Agent (IC50). On the procedure:
as §1, §2, §3

For a further assay, the system named is BT-474-J4. The experiment in a line: Cell growth inhibition assay (Cell Titer Glo). Particulars: Homo sapiens, 72 h, BT-474-J4 (resistant line), Breast, HER2+, PIK3CA K111N; 3 days; read-out: Single Agent (IC50). The class given is cell-based. On the procedure:
as §4, §1, §2, §3

Where two headings read alike, the source gives them in different places.

Consider `COc1ncc(-c2ccc3nccc(-c4ccnnc4)c3c2)cc1NS(=O)(=O)c1ccc(F)cc1F` [Compound B, 2,4-difluoro-N-{2-(methyloxy)-5-[4-(4-pyridazinyl)-6-quinolinyl]-3-pyridinyl}benzenesulfonamide], for which the IC50 – broadly, the point on the concentration scale where inhibition reaches its midpoint – is 28 nM in the assay with BT-474; below 50 nM in the assay on BT-474 (Homo sapiens, BT-474, 72 h); 38 nM with CHL-1; below 40 nM in the assay on CHL-1 (Homo sapiens, CHL-1, 72 h); 206 nM in the assay on HCC202; 200 nM in the assay with HCC202 (Homo sapiens, HCC202, 72 h). The IC50 was below 5 nM with KPL4 (Homo sapiens, KPL4, 72 h); 3 nM in the assay with KPL4; 9 nM in the assay on MDA-MB-361; 15 nM in the assay on MDA-MB-453; below 5 nM in the assay on UACC893 (Homo sapiens, UACC-893, 72 h); 5 nM in the assay with UACC893. Further, the IC50 in the assay with ZR-75-1 (Homo sapiens, ZR-75-1, 72 h) is 10 to 1300 nM; in the assay with ZR-75-1 it was 12 nM; with SK-BR-3-W13, 167 nM; with JIMT-1 (Homo sapiens, JIMT-1, 72 h), below 30 nM; with JIMT-1, 28 nM. Also, the figures for the “caspase 3/7 activity” value in assay [1], in assay [2] and in assay [3] were “increased caspase 3/7 activity”, “slight increase in caspase 3/7 activity” and “increased caspase 3/7 activity”, respectively.

For `CS(=O)(=O)CCNCc1ccc(-c2ccc3ncnc(Nc4ccc(OCc5cccc(F)c5)c(Cl)c4)c3c2)o1` [Compound A, N-{3-Chloro-4-[(3-fluorobenzyl)oxy]phenyl}-6-[5-({[2-(methanesulphonyl)ethyl]amino}methyl)-2-furyl]-4-quinazolinamine ditosylate monohydrate], the IC50 is 241 nM in the assay on BT-474 (ditosylate monohydrate); below 200 nM in the assay with BT-474 (Homo sapiens, BT-474, 72 h); above 1000 nM with HCC1937; 4630 nM in the assay on HCC202 (Homo sapiens, HCC202, 72 h); 106 nM in the assay with MDA-MB-175-VII (ditosylate monohydrate); below 200 nM in the assay with MDA-MB-175-VII (Homo sapiens, 72 h). Besides, the IC50 was above 10000 nM in the assay with MDA-MB-361; 2470 nM in the assay with MDA-MB-453; below 200 nM in the assay on SK-BR-3 (Homo sapiens, SK-BR-3, 72 h); 312 nM with SK-BR-3 (ditosylate monohydrate); below 1000 nM with UACC893 (Homo sapiens, UACC-893, 72 h); 1070 nM in the assay with UACC893 (ditosylate monohydrate). Further, the IC50 in the assay on BT-474-J4 was 3540 nM; with SK-BR-3-W13, 7110 nM; with JIMT-1 (Homo sapiens, JIMT-1, 72 h) it was 9620 nM. In addition, the “Single Agent (IC50, μM)” value with HCC202, with MDA-MB-361 and with MDA-MB-453 was “less sensitive” in each case. The “caspase 3/7 activity” value is “increased caspase 3/7 activity” in assay [1], “slight increase in caspase 3/7 activity” in [2] and “increased caspase 3/7 activity” in assay [3].
